According to patent US20240272101A1, “Direct Sampling from Phase-Separated Sample for Hydrophobicity Assessment” (DH Technologies Development Pte. Ltd., priority 2021, published 2024):

What was measured:
[1] = known values, quoted for comparison; cited from earlier work
[2] = mass spectrometric hydrophobicity assessment: acoustic droplet ejection from water/pentanol two-phase system versus single-phase aqueous solution; format: physicochemical; conditions: MRM signal; 25 μL pentanol added to 25 μL water, 1 μg/mL analyte; FIGS. 7A and 7B
Description: A two-phase system was prepared by adding […] of pentanol to 25 μL of an aqueous solution of dextromethorphan. A SCIEX Triple Quad 6500+ mass spectrometer system having an acoustic droplet dispenser (shown schematically in FIG. 4) equipped with a two-layer acoustic calibration was employed to eject a plurality of droplets from the two-phase system into an OPI of the mass spectrometer for observing an MRM transition of the target analyte. Although in this example, a single MRM transition was monitored, in other cases, multiple MRM transitions of the target analyte can be monitored.
A single-phase aqueous sample was prepared as 1 μg/ml of dextromethorphan in 25 μL of water. A two-phase system was then formed by adding 25 μL of pentanol to 25 μL water in which 0.025 μg was mixed.
The above mass spectrometer was then utilized to obtain a series of measurements of the 272.2→215.1 MRM transition of the target analyte via sampling the single-phase solution and the two-phase system.
By way of comparison, a single-phase aqueous sample of adenosine was prepared by mixing adenosine with 25 μL of water to prepare a single-phase aqueous solution having a concentration of 1 μg/mL of adenosine. A two-phase system was prepared by adding 25 μL of pentanol to 25 μL aqueous single-phase system of adenosine having a concentration of 1 μg/mL adenosine. […]

| SMILES | log P [1] | relative ratio of the two-phase sampling signal versus the aqueous sampling signal [2] |
| --- | --- | --- |
| Nc1ncnc2c1ncn2[C@@H]1O[C@H](CO)[C@@H](O)[C@H]1O [adenosine] | −1.05 | less than that associated with dextromethorphan |
| COc1ccc2c(c1)[C@]13CCCC[C@@H]1[C@H](C2)N(C)CC3 [dextromethorphan] | +3.75 | – |
